Results published in paper PMC7470033, “In vitro inhibitory effect of lysionotin on the activity of cytochrome P450 enzymes” (Pharmaceutical Biology, 2020).

Experiments:
CYP2C19 [1] = biological target: T1, CYP2C19 (Homo sapiens, UniProt P33261); test: CYP2C19 inhibition in pooled human liver microsomes (S-mephenytoin 4-hydroxylation); type: in vitro ADME; settings: for inhibition model of CYP2C19: Lineweaver-Burk plots
T1 construct: Pooled HLMs were purchased from BD Biosciences Discovery Labware; tissue BD Biosciences Discovery Labware; host or cells: pooled human liver microsomes
Experimental: (§1) In this study, lysionotin was incubated with eight CYP isoforms (i.e., 1A2, 3A4, 2A6, 2E1, 2D6, 2C9, 2C19 and 2C8) in pooled human liver microsomes to investigate the interaction between lysionotin and CYPs, which can provide direct evidence for the effect of lysionotin on the activity of CYPs. In vitro, phenacetin (CYP1A2), testosterone (CYP3A4), coumarin (CYP2A6), chlorzoxazone (CYP2E1), dextromethorphan (CYP2D6), diclofenac (CYP2C9), S-mephenytoin (CYP2C19) and paclitaxel (CYP2C8) were used as probe substrates to determine the effects of lysionotin on eight CYP enzymes. In addition, enzyme kinetic studies were conducted to determine the inhibition model of lysionotin on CYP enzymes.
(§2) All incubations were performed in triplicate, and the mean values were utilised. The typical incubation systems contained 100 mM potassium phosphate buffer (pH 7.4), NADPH generating system (1 mM NADP^+, 10 mM glucose-6-phosphate, 1 U/mL of glucose-6-phosphate dehydrogenase, and 4 mM MgCl2), the appropriate concentration of HLMs, a corresponding probe substrate and lysionotin (or positive inhibitor for different probe reactions) in a final volume of 200 μL.
(§3) The concentration of lysionotin was 100 μM, and the positive inhibitor concentrations were as follows: 10 μM furafylline for CYP1A2, 1 μM ketoconazole for CYP3A4, 10 μM tranylcypromine for CYP2A6, 50 μM clomethiazole for CYP2E1, 10 μM quinidine for CYP2D6, 10 μM sulfaphenazole for CYP2C9, 50 μM tranylcypromine for CYP2C19, 5 μM montelukast for CYP2C8. Probe substrates, positive inhibitors (except for dextromethorphan and quinidine, which were dissolved in water), and lysionotin were dissolved in methanol, with a final concentration of 1% (v/v), and 1% neat methanol was added to the incubations without inhibitor. There was a 3 min preincubation period (at 37 °C) before the reaction was initiated by adding an NADPH-generating system. The reaction was terminated by adding a 100 μL acetonitrile (10% trichloroacetic acid for CYP2A6) internal standard mix, and the solution was placed on ice. The mixture was centrifuged at 12,000 rpm for 10 min, and an aliquot (50 μL) of supernatant was transferred for HPLC analysis. The instrument used in this study was Agilent 1260 series instrument with DAD and FLD detector, and the quantitative assay for the corresponding metabolites was performed as previously reported and the detection conditions are summarised in Table 2 (He et al. [2015]; Lang et al. [2017]; Zhang et al. [2017]). […]
(§4) The enzyme kinetic parameters for the probe reaction were estimated from the best fit line, using least-squares linear regression of the inverse substrate concentration versus the inverse velocity (Lineweaver-Burk plots), and the mean values were used to calculate Vmax and Km. Inhibition data from the experiments that were conducted using multiple compound concentrations were represented by Dixon plots, and inhibition constant (Ki) values were calculated using non-linear regression according to the following equation: v=(VmaxS)/(Km(1+I/Ki+S)for competitive inhibition v=(VmaxS)/[(Km+S((1+I/Ki)] for non-competitive inhibition where I is the concentration of the compound, Ki is the inhibition constant, S is the concentration of the substrate, and Km is the substrate concentration at half the maximum velocity (Vmax) of the reaction. The mechanism of the inhibition was inspected using the Lineweaver-Burk plots and the enzyme inhibition models. […]

CYP3A4 = biological target: T2, CYP3A4 (Homo sapiens, UniProt P08684); test: Time-dependent inhibition study of CYP3A4 in HLMs; type: in vitro ADME
T2 construct: Pooled HLMs were purchased from BD Biosciences Discovery Labware; tissue BD Biosciences Discovery Labware; host or cells: pooled human liver microsomes
Experimental: (§5) To determine whether lysionotin could inhibit the activity of CYP3A4, 2C19, and 2C8 in a time-dependent manner, lysionotin (20 μM) was pre-incubated with HLMs (1 mg/mL) in the presence of an NADPH-generating system for 30 min at 37 °C. After incubation, an aliquot (20 μL) was transferred to another incubation tube (final volume 200 μL) containing an NADPH-generating system and probe substrates whose final concentrations were approximate to Km. Then, further incubations were performed to measure the residual activity. After being incubated for 0, 5, 10, 15, and 30 min, the reactions were terminated by adding a 100 μL acetonitrile internal standard mix and then placed on ice; the corresponding metabolites were determined by HPLC.
To determine the KI and Kinact values for the inactivation of CYP3A4, the incubations were conducted using higher probe substrate concentrations (approximately 4-fold Km values) and various concentrations of lysionotin (0–50 μM) after different preincubation times (0–30 min), with a two-step incubation scheme, as described above. The value of KI and Kinact was calculated with the equation 1/Kobs = KI/Kinact*1/[I] + 1/Kinact. Where Kobs is the pseudo-first-order rate constant of inactivation at inactivated concentration [I], Kinact is the maximum inactivation rate (a theoretical value that cannot be experimentally observed), and KI is the inactivated concentration when the rate of inactivation reaches half of Kinact.

CYP2C8 [2] = biological target: T3, CYP2C8 (Homo sapiens, UniProt P10632); test: Time-dependent inhibition study of CYP2C8 in HLMs; type: in vitro ADME; settings: 20 μM lysionotin, 0–30 min
T3 construct: Pooled HLMs were purchased from BD Biosciences Discovery Labware; tissue BD Biosciences Discovery Labware; host or cells: pooled human liver microsomes
T3 sequence (P10632 1-490): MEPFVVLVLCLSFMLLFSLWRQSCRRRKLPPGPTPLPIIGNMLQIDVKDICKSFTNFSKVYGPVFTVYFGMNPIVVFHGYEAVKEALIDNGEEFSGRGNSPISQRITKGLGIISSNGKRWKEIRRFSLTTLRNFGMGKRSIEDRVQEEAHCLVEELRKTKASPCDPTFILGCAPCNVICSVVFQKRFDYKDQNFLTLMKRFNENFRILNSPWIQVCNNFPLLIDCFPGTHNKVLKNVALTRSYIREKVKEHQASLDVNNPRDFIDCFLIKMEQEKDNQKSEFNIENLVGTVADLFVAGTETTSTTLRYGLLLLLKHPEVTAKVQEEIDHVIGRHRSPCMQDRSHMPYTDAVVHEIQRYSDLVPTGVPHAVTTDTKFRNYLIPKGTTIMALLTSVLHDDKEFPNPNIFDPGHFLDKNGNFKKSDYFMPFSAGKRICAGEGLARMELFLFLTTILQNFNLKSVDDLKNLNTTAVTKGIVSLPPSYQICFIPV
Experimental: as §5

CYP2C19 [3] = biological target: T1, CYP2C19; test: Time-dependent inhibition study of CYP2C19 in HLMs; type: in vitro ADME; settings: 20 μM lysionotin, 0–30 min
Experimental: as §5

[4] = parameters: method as in Liu et al. [2013]; settings: oral administration of 50 mg/kg, ref Liu et al. [2013]; cited from earlier work
CYP2C8 [5] = biological target: T3, CYP2C8; test: CYP2C8 inhibition in pooled human liver microsomes (paclitaxel 6α-hydroxylation); type: in vitro ADME; settings: 100 μM lysionotin, pooled HLMs
Experimental: as §1, §2, §3, §4

T2 sequence (P08684 whole entry): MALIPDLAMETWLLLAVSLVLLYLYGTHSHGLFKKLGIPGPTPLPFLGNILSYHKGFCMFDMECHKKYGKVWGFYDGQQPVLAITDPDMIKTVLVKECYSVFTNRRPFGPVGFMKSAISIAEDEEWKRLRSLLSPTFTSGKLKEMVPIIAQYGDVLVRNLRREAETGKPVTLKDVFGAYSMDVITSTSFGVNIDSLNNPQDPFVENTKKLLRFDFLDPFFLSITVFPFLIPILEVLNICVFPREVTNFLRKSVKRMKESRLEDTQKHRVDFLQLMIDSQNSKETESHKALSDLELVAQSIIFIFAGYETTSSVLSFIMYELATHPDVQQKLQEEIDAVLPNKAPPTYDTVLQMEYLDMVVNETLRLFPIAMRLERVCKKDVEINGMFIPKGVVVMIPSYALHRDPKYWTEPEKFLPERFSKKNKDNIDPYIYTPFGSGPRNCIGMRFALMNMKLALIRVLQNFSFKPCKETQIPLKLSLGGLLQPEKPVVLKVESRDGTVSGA
T1 sequence (P33261 whole entry): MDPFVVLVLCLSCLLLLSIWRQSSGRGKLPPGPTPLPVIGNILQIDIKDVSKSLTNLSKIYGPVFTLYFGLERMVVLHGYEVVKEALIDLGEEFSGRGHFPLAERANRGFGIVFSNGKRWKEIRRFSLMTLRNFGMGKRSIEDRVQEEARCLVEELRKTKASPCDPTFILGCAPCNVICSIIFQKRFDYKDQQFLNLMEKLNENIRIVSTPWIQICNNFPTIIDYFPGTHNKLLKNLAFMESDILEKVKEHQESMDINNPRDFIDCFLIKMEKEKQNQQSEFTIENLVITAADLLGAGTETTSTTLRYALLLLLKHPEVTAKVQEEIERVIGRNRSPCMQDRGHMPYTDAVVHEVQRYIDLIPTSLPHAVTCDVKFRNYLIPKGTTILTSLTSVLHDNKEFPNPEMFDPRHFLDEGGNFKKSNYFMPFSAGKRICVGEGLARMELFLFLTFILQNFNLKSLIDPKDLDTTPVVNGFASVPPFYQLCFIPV

- activity of CYP2C19 decreased by (CYP2C19 [1]; 100 μM lysionotin, pooled HLMs): 74.86%
- inhibition model of CYP2C19 (CYP2C19 [1]): competitively
- inhibition model of CYP2C19 (CYP2C19 [1]; listed as Lysionotin): competitive
- Ki (CYP2C19 [1]; competitive model, mephenytoin 50–200 μM, lysionotin 0–50 μM, pooled HLM): 12.4 µM
- IC50 (CYP2C19 [1]; pooled HLMs, S-mephenytoin 4-hydroxylation): 25 µM
- effect of incubation time on the inhibition of CYP3A4 (CYP3A4; 20 μM lysionotin, 0–30 min): time-dependent
- CYP3A4 inactivated every minute (CYP3A4; during incubation with lysionotin): about 4.8%
- KI (inactivation) (CYP3A4; human, human liver microsomes, probe testosterone (approximately 4-fold Km), lysionotin 0–50 μM, preincubation 0–30 min, NADPH, printed as KI/Kinact): 6.62 µM
- Kinact for inactivation of CYP3A4 (CYP3A4; lysionotin 0–50 μM, preincubation 0–30 min, NADPH, printed as KI/Kinact): 0.048 min⁻¹
- effect of incubation time on the inhibition of CYP2C8 (CYP2C8 [2]): relatively stable
- effect of incubation time on the inhibition of CYP2C19 (CYP2C19 [3]): relatively stable
- activity of CYP2C8 decreased by (CYP2C8 [5]): 67.22%
Compound: COc1ccc(-c2cc(=O)c3c(O)c(OC)c(O)c(OC)c3o2)cc1 [lysionotin, Lysionotin]
- Cmax in rat plasma [4]: 58.4 ± 10.3 ng/mL
